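Protocol summary: plate cells (96-well), add compound at 5 concentrations, incubate 48 h, interpolate endpoints linearly. GI50 marks 50% less growth. TGI: concentration producing complete growth inhibition.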
Experiments:
Assay in all cases: growth of human tumour cells (NCI), 48 h
HCT-116 colon = system: HCT-116 colon
A498 renal = system: A498 renal
OVCAR-4 ovarian = system: OVCAR-4 ovarian
MDA-MB-231 breast = system: MDA-MB-231 breast
HOP-92 NSCLC = system: HOP-92 NSCLC
MCF7 breast = system: MCF7 breast
NCI-H460 lung = system: NCI-H460 lung
SF-295 CNS = system: SF-295 CNS
K-562 leukemia = system: K-562 leukemia
SK-MEL-2 melanoma = system: SK-MEL-2 melanoma

| SMILES | GI50 (HCT-116 colon) [µM] | TGI (HCT-116 colon) [µM] | GI50 (A498 renal) [µM] | TGI (A498 renal) [µM] | GI50 (OVCAR-4 ovarian) [µM] | TGI (OVCAR-4 ovarian) [µM] | GI50 (MDA-MB-231 breast) [µM] | TGI (MDA-MB-231 breast) [µM] | GI50 (HOP-92 NSCLC) [µM] | TGI (HOP-92 NSCLC) [µM] | GI50 (MCF7 breast) [µM] | TGI (MCF7 breast) [µM] | GI50 (NCI-H460 lung) [µM] | TGI (NCI-H460 lung) [µM] | GI50 (SF-295 CNS) [µM] | TGI (SF-295 CNS) [µM] | GI50 (K-562 leukemia) [µM] | TGI (K-562 leukemia) [µM] | TGI (SK-MEL-2 melanoma) [µM] | GI50 (SK-MEL-2 melanoma) [µM] |
| --- | --- | --- | --- | --- | --- | --- | --- | --- | --- | --- | --- | --- | --- | --- | --- | --- | --- | --- | --- | --- |
| C[n+]1c2ccccc2nc2c(N)cc(N)cc21 | 10.5 | 83.6 | 69.2 | > 100 | 5.87 | > 100 | 21.7 | > 100 | 35.4 | > 100 | 5.1 | 37.3 | 16.8 | 59 | 3.6 | 31 | 3.07 | 33.2 | – | – |
| CN=C1OC2(c3ccccc3)C3=C(OC(=NC)N2C)C(=O)OC3(c2ccccc2)N1C (stereo unspecified) | – | > 100 | – | > 100 | – | > 100 | – | > 100 | – | – | – | > 100 | – | > 100 | – | > 100 | – | > 100 | > 100 | – |
| CC(CO)(Nc1ccc([N+](=O)[O-])cc1[N+](=O)[O-])C(=O)O (stereo unspecified) | – | > 100 | – | – | – | – | – | > 100 | – | – | – | 32.1 | – | 28.8 | – | > 100 | – | 38.6 | 55.4 | – |
| O=C(/C=C/c1ccc(Cl)c(Cl)c1)c1cccc2ccccc12 | – | 15.2 | – | 38 | – | 20.7 | – | – | – | 31.4 | – | – | – | 19.3 | – | 24.5 | – | 11.2 | – | – |
| O=C1C=C(O)C(=Cc2c(O)cc(O)cc2O)C(O)=C1 | – | > 100 | – | > 100 | – | > 100 | – | – | – | > 100 | – | – | – | > 100 | – | > 100 | – | > 100 | > 100 | – |
| Cc1ccc(NC(=O)C(=O)C(C(=O)/C=C/c2ccccc2)C2OC(=O)c3ccccc32)c(C)c1 (stereo unspecified) | – | > 100 | – | > 100 | – | > 100 | – | – | – | > 100 | – | – | – | > 100 | – | > 100 | – | > 100 | – | – |
| CC1=NN(c2ccccc2)C(=O)/C1=C\c1ccc([N+](=O)[O-])cc1 | – | – | – | 56.2 | – | 42.2 | – | – | – | – | – | – | – | > 100 | – | 68.9 | – | 81.4 | 56 | – |
| N[C@H](COCc1ccccc1)c1ccccc1 | – | 61.8 | – | 88.2 | – | > 100 | – | – | – | 62 | – | – | – | 61.9 | – | 82.5 | – | 87.2 | 49.8 | – |
| N#CCCNc1nonc1-c1nc2ccccc2n1CC(=O)c1ccc(NC(=O)[C@@H](N)CCCCN)cc1 | 0.04 | > 100 | 0.0154 | 1.89 | 0.0436 | > 100 | 0.0599 | > 100 | 0.487 | > 100 | 0.0302 | > 100 | 0.0344 | > 100 | 0.016 | > 100 | 0.0322 | > 100 | – | – |
| Cc1ccccc1-n1c(N)c(-c2nc3ccccc3[nH]2)sc1=S | – | – | – | > 100 | – | 78.3 | – | – | – | – | – | – | – | – | – | 42.4 | – | > 100 | 48.3 | – |
| NC1=NC(=O)C(CC(=O)Nc2ccc(Cl)cc2Cl)S1 (stereo unspecified) | – | – | – | > 100 | – | > 100 | – | – | – | – | – | – | – | > 100 | – | > 100 | – | > 100 | > 100 | – |
| O=Cc1ccc2c(c1I)OCO2 | – | > 100 | – | > 100 | – | > 100 | – | – | – | – | – | – | – | > 100 | – | > 100 | – | > 100 | > 100 | – |
| CC(=O)/C(=C\c1ccccc1O)C(=O)Nc1ccccc1C | – | > 100 | – | – | – | > 100 | – | – | – | 44.9 | – | – | – | > 100 | – | 76.2 | – | > 100 | 46.9 | – |
| O=C(O)c1ccccc1NC(=S)c1ccccc1 | – | > 100 | – | > 100 | – | 29 | – | > 100 | – | 44.1 | – | > 100 | – | > 100 | – | > 100 | – | > 100 | – | – |
| N#CNc1nc(N)c(-c2ccc(Cl)cc2)c(C(=O)Nc2nccs2)n1 | – | > 100 | – | > 100 | – | > 100 | – | – | – | > 100 | – | – | – | > 100 | – | > 100 | – | > 100 | > 100 | – |
| c1cc(-c2cn3c(n2)SCC3)ccn1 | – | > 60.4 | – | > 100 | – | > 100 | – | – | – | > 100 | – | – | – | > 95.2 | – | > 100 | – | > 31.6 | > 100 | – |
| O=C(O)CCNS(=O)(=O)c1ccc([N+](=O)[O-])cc1 | – | – | – | > 100 | – | > 100 | – | – | – | > 100 | – | – | – | > 100 | – | > 100 | – | > 100 | > 100 | – |
| N#CC1(C#N)C(c2ccccc2)C=CC12OCCCO2 (stereo unspecified) | – | > 100 | – | > 100 | – | > 100 | – | – | – | > 100 | – | – | – | > 100 | – | > 100 | – | > 100 | > 100 | – |
| CCOc1ccc(NC(=O)CCc2nnc(SC)o2)cc1 | – | > 100 | – | > 100 | – | > 100 | – | – | – | > 100 | – | – | – | > 100 | – | > 100 | – | > 100 | > 100 | – |
| ClC1=C(Cl)C(Cl)(Cl)c2c3c(c4c(c21)C(Cl)(Cl)C(Cl)=C4Cl)C(Cl)(Cl)C(Cl)=C3Cl | – | > 100 | – | – | – | – | – | – | – | – | – | – | – | > 100 | – | > 100 | – | > 100 | – | – |
| CC1=C(CC2C(=O)N(c3ccccc3)S(=O)(=O)NC2C)C(=O)N(c2ccccc2)S(=O)(=O)N1C (stereo unspecified) | – | > 100 | – | – | – | > 100 | – | – | – | > 100 | – | – | – | > 100 | – | > 100 | – | > 100 | > 100 | – |
| C[C@@H]1O[C@@H](O[C@@H]2[C@@H](O)[C@H](OCCc3ccc(O)c(O)c3)O[C@H](CO)[C@H]2OC(=O)/C=C/c2ccc(O)c(O)c2)[C@H](O)[C@H](OC2OC[C@](O)(CO)[C@H]2O)[C@H]1O (stereo partly specified) | 30.4 | 65.4 | – | – | > 100 | > 100 | > 100 | > 100 | – | – | – | – | > 100 | > 100 | > 100 | > 100 | 58.5 | > 100 | > 100 | 52.6 |
| COc1ccc(OC(=O)CC2Cc3cc(OC)c(OC)c(OC)c3-c3ccc(SC)c(=O)cc32)cc1 (stereo unspecified) | – | 11.2 | – | 2.57 | – | > 100 | – | – | – | 9.05 | – | – | – | 4.99 | – | – | – | > 100 | 59 | – |
| N#CCN1C(=O)c2cc([N+](=O)[O-])cc3cc([N+](=O)[O-])cc(c23)C1=O | – | > 42.7 | – | > 100 | – | 28.4 | – | – | – | 32.5 | – | – | – | 45.9 | – | > 100 | – | 33.4 | 14.1 | – |

Reference: PubChem BioAssay (NCI)
